In patent US20220218878A1, “CONTROLLED HEAT DELIVERY COMPOSITIONS” (BAMBU VAULT LLC, priority 2019, published 2022):

Legend:
[1] = Surfactant effect on tetrakis aminium dye retention and particle size during emulsification; assay type: physicochemical; settings: emulsion and evaporation process; emulsifier as labelled
Procedure: The preparation of the aqueous phase: under the stirring with an IKA Ultra-Turrax® T 25 homogenizer at 8000 RPM, 1.2 g of sodium dodecyl sulfate (SDS) was added into 190 g of 4.9% aqueous polyvinyl alcohol (PVA) solution placed in a round bottom flask. An aqueous solution of SDS containing 4.9% PVA was formed after the dissolution of SDS (the aqueous phase).
The preparation of the organic phase: to 88 g of dichloromethane was added 8.0 g of DSM NeoCryl® B-805 polymer (MMA/BMA copolymer), 1.82 g of Epolight™ 1117 dye, and 0.65 g of Cyanox® 1790 in 88 g to allow the formation of a clear solution of B805 polymer and dyes (the polymer: dye weight ratio=4.4:1).
The organic phase (polymer and dyes dissolved in dichloromethane) was injected directly into the aqueous phase (PVA solution with SDS surfactant) at the tip of the Turrax's roto-stator (i.e. directly into the flow being sheared by the roto-stator). The shear mixing at 8000 RPM was continued for 30 minutes. The resulting mixture was decanted into an open-mouth container and stirred magnetically for 16 hours. A solid suspension of particles containing IR dye was obtained. […]
Particle Size and Distribution for the particle heaters The particle size and size distribution of the NIR dye/MMA/BMA copolymer particles were measured by a Horiba LA-950 Particle Size Analyzer in distilled water with pH 7.4 (FIG. 3). […]

[2] = Screening of acrylic polymer carriers and additives for particle performance; assay type: physicochemical; settings: additive within the particles
Description: Various commercially available acrylic polymers were screened for preferred particle performance characteristic such as particle size distribution, IR dye stability and encapsulation efficiency.
The loading of dyes within the particles is as high as possible without degrading the cohesion of the polymer. The additives that stabilize the dye within the particles have been studied.

Epolight™ 1117 retention in the particles [1]	impact on dye stability [2]	Compound
50%	–	CCCCCCCCCCCCCOC(=O)CC(C(=O)OCCCCCCCCCCCCC)S(=O)(=O)O.[Na] (stereo not drawn) [Aerosol® TR-70, sodium bis(tridecyl) sulfosuccinate]
–	positive impact on dye stability	Cc1cc(C(C)(C)C)c(O)c(C)c1Cn1c(=O)n(Cc2c(C)cc(C(C)(C)C)c(O)c2C)c(=O)n(Cc2c(C)cc(C(C)(C)C)c(O)c2C)c1=O [Cyanox® 1790, 1,3,5-tris(4-tert-butyl-3-hydroxy-2,6-dimethylbenzyl)-1,3,5-triazine-2,4,6-(1H,3H,5H)-trione]
85-90%	–	CCCCCCCCCCCCOS(=O)(=O)[O-].[Na+] [Sodium dodecyl sulfate, sodium dodecyl sulfate]
